Key:
[1] = biological target: T1, ΔPAS mutant EAG1 channels (deletion of PAS domain residues 2 to 130) (Mus musculus, UniProt Q60603); test: TEVC recording, imipramine inhibition, ΔPAS mutant; type: cell-based; settings: ΔPAS mutant EAG1 channel, +50 mV
T1 construct: expressed in transfected cells; host or cells: Xenopus laevis oocytes injected with cRNA
T1 sequence (Q60603 with tags, fused parts or gaps): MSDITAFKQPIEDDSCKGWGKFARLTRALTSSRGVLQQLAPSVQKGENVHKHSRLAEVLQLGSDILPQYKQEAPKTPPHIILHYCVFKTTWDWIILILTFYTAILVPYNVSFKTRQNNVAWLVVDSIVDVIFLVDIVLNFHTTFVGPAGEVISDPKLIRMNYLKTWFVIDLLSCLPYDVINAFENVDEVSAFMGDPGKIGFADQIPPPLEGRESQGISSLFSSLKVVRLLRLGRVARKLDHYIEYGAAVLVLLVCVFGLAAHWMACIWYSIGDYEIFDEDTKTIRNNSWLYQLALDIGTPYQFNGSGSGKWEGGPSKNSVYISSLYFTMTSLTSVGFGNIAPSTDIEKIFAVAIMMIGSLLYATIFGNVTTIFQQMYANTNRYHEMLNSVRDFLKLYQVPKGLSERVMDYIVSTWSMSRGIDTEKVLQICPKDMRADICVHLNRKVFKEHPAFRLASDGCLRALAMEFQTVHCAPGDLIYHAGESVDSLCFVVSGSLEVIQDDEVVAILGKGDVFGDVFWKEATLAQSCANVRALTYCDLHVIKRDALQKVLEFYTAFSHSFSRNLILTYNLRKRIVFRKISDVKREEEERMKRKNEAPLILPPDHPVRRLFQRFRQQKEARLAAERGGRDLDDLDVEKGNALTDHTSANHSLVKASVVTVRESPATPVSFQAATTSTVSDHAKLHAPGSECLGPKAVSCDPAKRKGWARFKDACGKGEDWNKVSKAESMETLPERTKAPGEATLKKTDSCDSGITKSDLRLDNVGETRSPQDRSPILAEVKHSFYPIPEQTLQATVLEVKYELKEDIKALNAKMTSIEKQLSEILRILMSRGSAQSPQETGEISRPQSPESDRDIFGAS
Description: (§1) The cDNA encoding wild-type (WT) mouse EAG1 channels in pGH19 vector was kindly provided by G. Robertson (University of Wisconsin-Madison, Madison, WI). The mutant ΔPAS EAG1 channel in pGH19 with the deletion of the PAS domain residues 2 to 130 was generated by Bio Basic Inc and verified by DNA sequencing (Genewiz). Mutant EAG1 channels with single amino acid substitutions were generated by Genewiz and verified by DNA sequencing. cRNA was transcribed using the T7 mMessage mMachine kit (Thermo Fisher Scientific). Defolliculated Xenopus laevis oocytes were purchased from Ecocyte Bioscience or Xenopus1 and injected with the cRNA using a Nanoinject II oocyte injector (Drummond).
(§2) For EAG1 current recordings, oocytes were placed into a handmade chamber containing a bath solution for the current recording. The currents were recorded using a TEVC technique with OC-725C amplifier (Warner Instruments) and pClamp11 software (Molecular Devices). The signals were digitized using Digidata 1550 (Molecular Devices). Patch pipettes were pulled from borosilicate glass and had resistances of 0.7 to 1.5 MΩ. The recording (bath) solution contained 96 mM NaCl, 4 mM KCl, 0.1 mM CaCl2, 1.8 mM MgCl2, and 5 mM HEPES, pH 7.5. The pipette solution contained 3 M KCl. […]

[2] = biological target: T2, Y71G mutant EAG1 channels (Mus musculus, UniProt Q60603, Y71G); test: TEVC recording, imipramine inhibition, Y71G mutant; type: cell-based; settings: Y71G mutant EAG1 channel, +50 mV
T2 construct: expressed in transfected cells; host or cells: Xenopus laevis oocytes injected with cRNA
T2 sequence (Q60603 1-989 Y71G): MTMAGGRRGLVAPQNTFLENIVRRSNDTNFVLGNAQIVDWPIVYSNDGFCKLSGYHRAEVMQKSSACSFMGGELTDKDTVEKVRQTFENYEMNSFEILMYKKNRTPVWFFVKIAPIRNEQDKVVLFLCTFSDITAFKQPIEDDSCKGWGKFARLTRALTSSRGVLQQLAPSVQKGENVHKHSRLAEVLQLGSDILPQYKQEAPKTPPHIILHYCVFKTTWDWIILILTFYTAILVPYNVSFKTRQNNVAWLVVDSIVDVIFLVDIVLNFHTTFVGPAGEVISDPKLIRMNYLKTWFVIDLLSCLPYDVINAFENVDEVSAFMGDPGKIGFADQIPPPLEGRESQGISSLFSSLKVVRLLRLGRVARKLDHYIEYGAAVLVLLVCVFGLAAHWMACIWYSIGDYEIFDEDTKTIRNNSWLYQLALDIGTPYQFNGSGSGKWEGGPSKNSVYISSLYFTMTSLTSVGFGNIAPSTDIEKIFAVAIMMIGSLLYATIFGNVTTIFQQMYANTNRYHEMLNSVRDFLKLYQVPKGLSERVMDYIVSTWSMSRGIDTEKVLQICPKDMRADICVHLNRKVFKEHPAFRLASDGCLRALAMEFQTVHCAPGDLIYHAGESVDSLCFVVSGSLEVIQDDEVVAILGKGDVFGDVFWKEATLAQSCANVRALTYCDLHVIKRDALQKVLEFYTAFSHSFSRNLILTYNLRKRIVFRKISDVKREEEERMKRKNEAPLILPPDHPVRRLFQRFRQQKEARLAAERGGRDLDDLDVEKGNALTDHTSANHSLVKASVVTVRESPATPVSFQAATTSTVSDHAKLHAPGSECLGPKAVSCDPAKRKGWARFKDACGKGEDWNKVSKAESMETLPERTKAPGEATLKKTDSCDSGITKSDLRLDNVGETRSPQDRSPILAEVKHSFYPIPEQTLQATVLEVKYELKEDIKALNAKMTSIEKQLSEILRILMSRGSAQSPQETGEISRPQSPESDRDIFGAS
Description: as §1, §2

[3] = test system: EAG1 channels; settings: HEK293, whole-cell configuration; read-out: IC50 for EAG1 currents recorded from HEK293 in the whole-cell configuration; cited from earlier work

IC50 [1]: 109 ± 12.6 µM
IC50 [2]: 26.7 ± 3.2 µM
SMILES: CN(C)CCCN1c2ccccc2CCc2ccccc21 [imipramine]
IC50 [3]: ~2 µM
